Measurements as given in patent publication US20230172940A1, “METHODS OF EXTENDING LIFESPAN BY ADMINISTERING FERROPTOSIS INHIBITORS” (COLLABORATIVE MEDICINAL DEVELOPMENT, LLC, priority 2020, published 2023).

system: RSL3; test: IC50 (RSL3), Table 1; type: cell-based; conditions: not given

SMILES | IC50 [nM]
CCC/C=C/c1nc(NC2CCCC2)c2c(n1)SCC(=O)N2 [Compound B-600, 4-(cyclopentylamino)-2-[(1E)-pent-1-en-1-yl]-5H,6H,7H-pyrimido[4,5-b][1,4]thiazin-6-one] | ≥ 3000
CCCCCc1nc(NC2CCCC2)c2c(n1)S(=O)(=O)CCN2 [Compound B-602, N-cyclopentyl-8,8-dioxo-2-pentyl-6,7-dihydro-5H-pyrimido[4,5-b][1,4]thiazin-4-amine] | ≥ 3000
CCCCC(=O)c1cc2c(c(N(S(=O)(=O)CC(C)C)S(=O)(=O)CC(C)C)c1)NCCC2 [Compound B-248, N-isobutylsulfonyl-2-methyl-N-(6-pentanoyl-1,2,3,4-tetrahydroquinolin-8-yl)propane-1-sulfonamide] | > 3000
CCCCC(O)c1cc2c(c(NC(C)(C)C)n1)NCC(C(F)(F)F)C2 (stereo not drawn) [Compound R-812, 1-[8-(tert-butylamino)-3-(trifluoromethyl)-1,2,3,4-tetrahydro-1,7-naphthyridin-6-yl]pentan-1-ol] | 40
CCC(C)Nc1ccc(-c2cccnc2)nc1NC1CCCC1 (stereo not drawn) [Compound H-74, N^2-cyclopentyl-6-(3-pyridyl)-N^3-sec-butyl-pyridine-2,3-diamine] | 5
CCC(C)Nc1ccc(-c2cncnc2)nc1NC1CCCC1 (stereo not drawn) [Compound H-80, N^2-cyclopentyl-6-pyrimidin-5-yl-N^3-sec-butyl-pyridine-2,3-diamine] | 7
CC(C)=Cc1nc(C)nc(NC2CCCC2)c1N [Compound F-99, N^4-cyclopentyl-2-methyl-6-(2-methylprop-1-enyl)pyrimidine-4,5-diamine] | > 625
CC1(Nc2nc(-c3ccc(F)cc3)ccc2NC2CCC2)CCOC1 (stereo not drawn) [Compound P-54, N^3-cyclobutyl-6-(4-fluorophenyl)-N^2-(3-methyltetrahydrofuran-3-yl)pyridine-2,3-diamine] | 3
CCCCCc1nc(NC2CCCC2)c2c(n1)OCCN2 [Compound B-711, N-cyclopentyl-2-pentyl-5H,6H,7H-pyrimido[4,5-b][1,4]oxazin-4-amine] | 41
CC1=Nc2cc(C#N)ccc2NC1(C)C [Compound Q-912, 2,2,3-trimethyl-1H-quinoxaline-6-carbonitrile] | > 3000
CCCCCc1ccc(NC(C)CC)c(NC2CCCC2)n1 (stereo not drawn) [Compound H-72, N^2-cyclopentyl-6-pentyl-N^3-sec-butyl-pyridine-2,3-diamine] | 6
CCCCC(=O)c1cc2c(c(OC3CCCC3)c1)NCCC2 [Compound Q-980, 1-[8-(cyclopentoxy)-1,2,3,4-tetrahydroquinolin-6-yl]pentan-1-one] | > 3000
CCCCCc1nc(NC2CCCC2)c2c(n1)SCCN2 [Compound B-601, N-cyclopentyl-2-pentyl-5H,6H,7H-pyrimido[4,5-b][1,4]thiazin-4-amine] | 3
CCC(C)Nc1ccc(-c2ccncc2)nc1NC1CCCC1 (stereo not drawn) [Compound H-76, N^2-cyclopentyl-6-(4-pyridyl)-N^3-sec-butyl-pyridine-2,3-diamine] | 6
CCC/C=C/c1nc(NC2CCOC2)c2c(n1)OCC(=O)N2 (stereo not drawn) [Compound B-603, 4-[(oxolan-3-yl)amino]-2-[(1E)-pent-1-en-1-yl]-5H,6H,7H-pyrimido[4,5-b][1,4]oxazin-6-one] | > 3000
CCC(C)Nc1ccc(-c2ccc(C)cc2)nc1NC(C)(C)C [Compound L-02, N^2-tert-butyl-6-(p-tolyl)-N^3-sec-butyl-pyridine-2,3-diamine] | 5
CCOC(=O)c1cc2c(c(C(=O)C(F)(F)F)c1)NC(C)(C)C=C2 [Compound B-101, Ethyl 2,2-dimethyl-8-(2,2,2-trifluoroacetyl)-1,2-dihydroquinoline-6-carboxylate] | > 3000

Further lines, results first:

IC50 [nM] | SMILES
3 | COc1ccc(-c2ccc(NC3COC3)c(NC3CCCC3)n2)cc1 [Compound H-87, N^2-cyclopentyl-6-(4-methoxyphenyl)-N^3-(oxetan-3-yl)pyridine-2,3-diamine]
> 3000 | CCCCC(=O)c1cc(F)c2c(c1)CCCN2 [Compound B-132]
> 3000 | CCCCC(=O)c1cc2c3c(c1)nc(C(F)(F)F)n3CCC2 [Compound B-099, 1-[2-(trifluoromethyl)-1,3-diazatricyclo[6.3.1.04,12]dodeca-2,4(12),5,7-tetraen-6-yl]pentan-1-one]
> 3000 | CON(C)C(=O)c1ccc2c(c1)C=CC(C)(C)N2 [Compound B-065]
6 | Cc1ccc(-c2nc3c(c(NC4CCCC4)n2)NCCC3)cc1 [Compound A-32, N-cyclopentyl-2-(p-tolyl)-5,6,7,8-tetrahydropyrido[3,2-d]pyrimidin-4-amine]
> 625 | c1ncc(-c2ncc(NC3COC3)c(NC3CCCC3)n2)cn1 [Compound F-82, N^4-cyclopentyl-N^5-(oxetan-3-yl)-2-pyrimidin-5-yl-pyrimidine-4,5-diamine]
1 | CCC(C)Nc1ccc(-c2ccncc2)nc1NC(C)(C)C (stereo not drawn) [Compound P-22]
40 | CCC/C=C/c1nc2c(c(NC3CCCC3)n1)NCCC2 [Compound B-388, N-cyclopentyl-2-[(E)-pent-1-enyl]-5,6,7,8-tetrahydropyrido [3,2-d]pyrimidin-4-amine]
7 | Cc1ccc(-c2ccc(NC(C)(C)C)c(NC3CCCC3)n2)cc1 [Compound A-98, N^3-tert-butyl-N^2-cyclopentyl-6-(p-tolyl)pyridine-2,3-diamine]
5 | CC(C)(C)Nc1ccc(-c2ccncc2)nc1NC1CCCC1 [Compound L-04, N^3-tert-butyl-N^2-cyclopentyl-6-(4-pyridyl)pyridine-2,3-diamine]
7 | CCC(C)Nc1ccc(-c2ccc(C)cc2)nc1NC1CCCC1 (stereo not drawn) [Compound H-61, N^2-cyclopentyl-6-(p-tolyl)-N^3-sec-butyl-pyridine-2,3-diamine]
> 1000 | CCOC(=O)c1cc(N)c2c(c1)OCCN2 [Compound H-85]
> 3000 | CCCCCc1nc2c(c(NC3CCCC3)n1)NC(C)(C)CC2 [Compound B-917, N-cyclopentyl-6,6-dimethyl-2-pentyl-5H,6H,7H,8H-pyrido[3,2-d]pyrimidin-4-amine]
> 3000 | CCCCC(=O)c1cc2c(c(-c3ccncc3)c1)NCCC2 [Compound Q-950, 1-[8-(4-pyridyI)-1,2,3,4-tetrahydroquinolin-6-yl]pentan-1-one]
1 | CC1(Nc2nc(-c3ccc(F)cc3)ccc2NC2CCOCC2)CCOC1 (stereo not drawn) [Compound N-53, 6-(4-fluorophenyl)-N^2-(3-methyltetrahydrofuran-3-yl)-N^3-tetrahydropyran-4-yl-pyridine-2,3-diamine]
> 3000 | CCCCC(=O)c1cc2c(c(NC3CCCC3)c1)OCCC2 [Compound B-035, 1-[8-(cyclopentylamino)-3,4-dihydro-2H-1-benzopyran-6-yl]pentan-1-one]
> 3000 | CCCCC(=O)c1cc2c(c(-n3ccnc3)c1)NCCC2 [Compound B-006, 1-(8-imidazol-1-yl-1,2,3,4-tetrahydroquinolin-6-yl)pentan-1-one]
70 | CCCCC(OC)c1cc2c(c(Nc3ccccn3)c1)NCCC2 (stereo not drawn) [Compound B-397, 6-(1-methoxypentyI)-N-(2-pyridyl)-1,2,3,4-tetrahydroquinolin-8-amine]
5 | Cc1ccc(-c2ccc(NC3COC3)c(NC3CCCC3)n2)cc1 [Compound H-81, N^2-cyclopentyl-N^3-(oxetan-3-yl)-6-(p-tolyl)pyridine-2,3-diamine]
8 | CCCCC(=O)c1cc2c(c(NC3CCCC3)n1)NCCC2 [Compound B-647, 1-[8-(cyclopentylamino)-1,2,3,4-tetrahydro-1,7-naphthyridin-6-yl]pentan-1-one]
8 | CCC(C)Nc1ccc(-c2ccc(OC)cc2)nc1NC1CCCC1 (stereo not drawn) [Compound H-86, N^2-cyclopentyl-6-(4-methoxyphenyl)-N^3-sec-butyl-pyridine-2,3-diamine]

same assay, conditions: unit cell prints uM

IC50 [nM] | SMILES
> 10000 | CCCCC(O)c1nc2c(c(Nc3ccccn3)n1)NCCC2 (stereo not drawn) [Compound G-63, 1-[4-(2-pyridylamino)-5,6,7,8-tetrahydropyrido[3,2-d]pyrimidin-2-yl]pentan-1-ol]
> 10000 | CCCCC(=O)c1nc2c(c(Nc3ccccn3)n1)NCCC2 [Compound G-65, 1-[4-(2-pyridylamino)-5,6,7,8-tetrahydropyrido[3,2-d]pyrimidin-2-yl]pentan-1-one]
> 10000 | CNC(=O)c1nc(-c2ccc(C)cc2)nc2c1NC(C)(C)N2C1CCCC1 [Compound K-34, 9-cyclopentyl-N,8,8-trimethyl-2-(p-tolyI)-5,7-dihydro-4H-purine-6-carboxamide]

system: C. elegans strain TJ1060; test: Lifespan determination; type: in vivo, Caenorhabditis elegans; conditions: alternative ferroptosis inhibitor
Procedure: Lifespan was measured using established protocols. SIH was dissolved in neat dimethyl sulfoxide (DMSO; Sigma-Aldrich) then added to the molten NGM at 55° C. (to a final concentration of 250 μM SIH in 0.5% v/v DMSO). Lip-1 was dissolved in neat DMSO then added to the molten NGM at 55° C. (to a final concentration of 200 μM Lip-1 in 0.5% v/v DMSO). Media containing equivalent vehicle alone (0.5% v/v DMSO) was used for comparison. Standard overnight culture of the Escherichia coli (E. coli) strain OP50 was used as the food source.
Lifespan data was collected at 25 (±1) ° C. using the temperature sensitive-sterile strain TJ1060 [spe-9(hc88); fer-15(b26)]. A synchronous population was obtained by transferring egg-laying adults to fresh plates at 16° C. for 2-3 hours. The adults were removed and the plates with eggs then transferred to 25° C. to ensure sterility. After 48 hours at 25° C., when worms were at the late L4/young adult stage, 25-35 nematodes were transferred to fresh plates containing either vehicle control, 250 μM SIH, or 200 μM Lip-1. All plates were coded to allowing blinding of the experimenter to the treatment regime during scoring. Nematodes were scored for survival at one to three-day intervals and transferred to freshly prepared plates as needed (2-5 days).
It is well documented that differences are observed between independent measures of lifespan, with micro-environmental factors such as minor temperature fluctuations potentially resulting differences in median and maximum lifespan between replicates. After determining the optimal doses of 250 μM SIH and 200 μM Lip-1, respectively, cohorts of nematodes were compared in 8 independent replicates. As the number of worms measured is known to influence the likelihood of accurately observing differences in lifespan, the starting populations for all treatments within experiments were in excess of 70 individuals.

SMILES | median lifespan extension
CCOC(=O)c1ccc(NC2CCCCC2)c(N)c1 [ferrostatin] | significant but more modest median lifespan extension
